Results from patent US4473579A, “Antiatherosclerotic tetrasubstituted ureas and thioureas” (American Cyanamid Company, priority 1982, dated 1984).

Each compound was assayed against T1, fatty acyl CoA:cholesterol acyl transferase (ACAT) (Rattus norvegicus, UniProt O70536) (assay: In vitro inhibition of fatty acyl CoA:cholesterol acyl transferase (ACAT), rat adrenal supernatant). Settings: test compound final concentration 5.2 g./ml. (so in the source), pH 7.4, 37° C., 10 minutes.
T1 construct: Rat adrenals were homogenized in 0.2M monobasic potassium phosphate buffer; from tissue; host or cells: rat adrenals, 1000 x g supernatant containing the microsomal fraction
T1 sequence (O70536 1-545): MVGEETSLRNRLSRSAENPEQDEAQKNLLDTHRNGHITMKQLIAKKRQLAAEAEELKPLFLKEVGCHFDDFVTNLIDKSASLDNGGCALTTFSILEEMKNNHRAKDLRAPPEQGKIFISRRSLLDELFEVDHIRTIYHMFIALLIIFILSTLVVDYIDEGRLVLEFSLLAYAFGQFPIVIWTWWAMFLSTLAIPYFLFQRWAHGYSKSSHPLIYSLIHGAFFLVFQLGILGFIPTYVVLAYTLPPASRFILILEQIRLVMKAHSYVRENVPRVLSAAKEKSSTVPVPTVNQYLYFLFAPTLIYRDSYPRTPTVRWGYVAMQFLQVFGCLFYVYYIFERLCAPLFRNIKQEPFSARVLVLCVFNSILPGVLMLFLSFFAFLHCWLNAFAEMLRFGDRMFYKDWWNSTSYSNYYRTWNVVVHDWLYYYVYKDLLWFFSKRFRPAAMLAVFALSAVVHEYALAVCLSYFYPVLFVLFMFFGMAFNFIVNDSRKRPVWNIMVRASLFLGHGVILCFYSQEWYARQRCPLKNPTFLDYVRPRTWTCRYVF
Assay type: biochemical
Experimental: (§1) The compounds of the present invention were assayed for two types of biological activity related to their potential use as antiatherosclerotic agents. Compounds were tested in vitro for their ability to inhibit the enzyme fatty acyl CoA:cholesterol acyl transferase (ACAT) and in vivo for serum hypolipidemic activity as measured by their ability to inhibit lipid absorption in rats. The compounds were tested for their ability to inhibit ACAT according to the following procedure:
Rat adrenals were homogenized in 0.2M monobasic potassium phosphate buffer, pH 7.4, and centrifuged at 1000 times gravity for 15 minutes at 5° C. The supernatant, containing the microsomal fraction, served as the source of the cholesterol-esterifying enzyme, fatty acyl CoA:cholesterol acyl transferase (ACAT). A mixture comprising 50 parts of adrenal supernatant, 10 parts of albumin (BSA) (50 mg./ml.), 3 parts of test compound (final concentration […].) and 500 parts of buffer was preincubated at 37° C. for 10 minutes. After treatment with 20 parts of oleoyl CoA(^14 C-[…]) the mixture was incubated at 37° C. for 10 minutes. A control mixture, omitting the test compound, was prepared and treated in the same manner. The lipids from the incubation mixture were extracted into an organic solvent and separated by thin-layer chromatography. The cholesteryl ester fraction was counted in a scintillation counter. This procedure is a modification of that described by Hashimoto, et al., Life Scie., 12 (Part II), 1-12 (1973).

% Inhibition (ACAT) [%] | Compound
95.4 | CCCCN(Cc1ccccc1)C(=O)N(CCCC)Cc1ccccc1 [1,3-Dibenzyl-1,3-di-(n-butyl)urea]
81.8 | CCCCN(Cc1ccccc1)C(=O)N(Cc1ccccc1)c1ccccc1 [1,3-Dibenzyl-1-(n-butyl)-3-phenylurea]
75.9 | CCCCN(Cc1ccccc1)C(=O)N(c1ccccc1)c1ccccc1 [1-Benzyl-1-(n-butyl)-3,3-diphenylurea]
72.3 | CCCCN(Cc1ccccc1)C(=O)N(c1ccccc1)c1cccc(Cl)c1 [1-Benzyl-1-(n-butyl)-3-(3-chlorophenyl)-3-phenylurea]
82.0 | CCCCN(Cc1ccccc1)C(=O)N(c1ccccc1)c1cccc(C)c1 [1-Benzyl-1-(n-butyl)-3-(3-methylphenyl)-3-phenylurea]

Second part, the compound before the results:

Compound | % Inhibition (ACAT) [%]
CCCCN(Cc1ccccc1)C(=O)N(c1ccc2ccccc2c1)c1ccc2ccccc2c1 [1-Benzyl-1-(n-butyl)-3,3-di(2-naphthyl)urea] | 93.2
CCCCN(Cc1ccccc1)C(=O)N(c1ccccc1)c1cccc2ccccc12 [1-Benzyl-1-(n-butyl)-3-(1-naphthyl)-3-phenylurea] | 76.3
CCCCN(Cc1ccccc1)C(=O)N(c1ccccc1)c1ccc2ccccc2c1 [1-Benzyl-1-(n-butyl)-3-(2-naphthyl)-3-phenylurea] | 83.6
CCCCN(Cc1ccccc1)C(=O)N(c1cccc(Cl)c1)c1ccc2ccccc2c1 [1-Benzyl-1-(n-butyl)-3-(3-chlorophenyl)-3-(2-naphthyl)urea] | 82.7
CCCCN(Cc1ccccc1)C(=O)N(c1ccccc1)c1cccc(OC)c1 [1-Benzyl-1-(n-butyl)-3-(3-methoxyphenyl)-3-phenylurea] | 82.5
CCCCN(Cc1ccccc1)C(=O)N(c1ccccc1)c1ccc(OC(C)C)cc1 [1-Benzyl-1-(n-butyl)-3-(4-isopropoxyphenyl)-3-phenylurea] | 77.8

These compounds were tested on cholesterol absorption (assay: Inhibition of cholesterol absorption in cholesterol/cholic acid fed rats (serum or liver cholesterol lowering)). Settings: 0.03% of the diet; 1% cholesterol: 0.5% cholic acid diet for 2 weeks; lowering of serum or liver cholesterol relative to control rats.
Assay type: in vivo, male Sprague-Dawley rats
Experimental: as §1
Inhibition of cholesterol absorption was determined by feeding male Sprague-Dawley rats, weighing 150-170 g., a 1% cholesterol: 0.5% cholic acid diet for 2 weeks. The diet was contained compounds being tested at a dose of 0.03% of the diet. Control rats were fed the same diet without any compound. At the end of the test, the rats were sacrificed by decapitation. Blood is collected, centrifuged at 1.5 kg times gravity for 10 minutes at 4° C., and the serum is then analyzed for cholesterol and triglycerides enzymatically by the method of Trinder, P., Analyst, 77, 321 (1952) on a Centrifichem 400 Analyzer. […] The resulting neutral sterols are extracted with petroleum ether and extract analyzed for cholesterol. The effectiveness of the compound in inhibiting cholesterol absorption is measured by the lowering of either serum cholesterol or liver cholesterol relative the values for control rats.

Compound | Result (inhibition of cholesterol absorption)
CCCCN(Cc1ccccc1)C(=O)N(c1ccccc1)c1cccc(OC)c1 [1-Benzyl-1-(n-butyl)-3-(3-methoxyphenyl)-3-phenylurea] | Active
